# Source: ChEMBL document CHEMBL1136522, “Redefining the structure-activity relationships of 2,6-methano-3-benzazocines. Part 2: 8-formamidocyclazocine analogues” (Bioorg Med Chem Lett, 2003)
# Experiments:
# Mu-type opioid receptor [1] = molecular target: T1, Mu-type opioid receptor (Cavia porcellus, UniProt P97266); experiment: Binding affinity was determined towards opioid receptor mu1 using [3H]DAMGO as radioligand
# [2] = molecular target: Kappa-type opioid receptor (Cavia porcellus, UniProt P41144); experiment: Binding affinity was determined towards opioid receptor kappa 1 using [3H]U-69593 as radioligand
# [3] = Binding affinity was determined towards Opioid receptor delta 1 using [3H]naltrindole as radioligand
# Mu-type opioid receptor [4] = molecular target: T1, Mu-type opioid receptor; experiment: Binding affinity towards Opioid receptor mu 1 using [3H]DAMGO as radioligand
# T1 sequence (P97266 whole entry): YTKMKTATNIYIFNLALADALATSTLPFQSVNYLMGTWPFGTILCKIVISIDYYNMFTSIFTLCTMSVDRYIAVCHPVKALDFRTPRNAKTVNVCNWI
# Sequence of Kappa-type opioid receptor (P41144 whole entry): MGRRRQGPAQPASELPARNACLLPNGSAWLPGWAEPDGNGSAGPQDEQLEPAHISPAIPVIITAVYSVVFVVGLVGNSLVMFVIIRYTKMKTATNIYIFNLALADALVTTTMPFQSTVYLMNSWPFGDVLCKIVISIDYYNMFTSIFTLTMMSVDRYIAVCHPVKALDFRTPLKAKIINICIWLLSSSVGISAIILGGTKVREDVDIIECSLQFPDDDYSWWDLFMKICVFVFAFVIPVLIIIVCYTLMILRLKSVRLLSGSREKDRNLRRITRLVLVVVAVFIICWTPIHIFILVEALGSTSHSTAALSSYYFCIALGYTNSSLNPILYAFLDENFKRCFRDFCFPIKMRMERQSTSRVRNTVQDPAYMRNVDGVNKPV
SMILES,Ki (Mu-type opioid receptor [1]) [nM],Ki [2] [nM],Ki [3] [nM],Ki (Mu-type opioid receptor [4]) [nM]
Nc1ccc2c3c1O[C@H]1C(=O)CC[C@@]4(O)[C@@H](C2)N(CC2CC2)CC[C@]314,5.6,5.8,–,–
CC(=O)Nc1ccc2c(c1)[C@@]1(C)CCN(CC3CC3)C(C2)[C@@H]1C,240,130,–,–
O=CNc1ccc2c3c1O[C@H]1C(=O)CC[C@@]4(O)[C@@H](C2)N(CC2CC2)CC[C@]314,8.3,4.2,–,–
CC[C@@]12CCN(CC3CC3)C(C(=O)c3ccc(NC=O)cc31)[C@@H]2C,6.1,1.2,–,–
C[C@H]1[C@H]2Cc3ccc(NC=O)cc3[C@]1(C)CCN2CC1CC1,1.1,0.49,–,–
"C[C@H]1[C@H]2Cc3ccc(O)cc3C1(C)CCN2CC1CC1 (single isomer, unassigned) [CYCLAZOCINE]",–,–,1.1,–
NC(=O)c1ccc2c3c1O[C@H]1C(=O)CC[C@@]4(O)[C@@H](C2)N(CC2CC2)CC[C@]314,–,–,110,–
"C[C@@H]1C2Cc3ccc(NC=O)cc3C1(C)CCN2CC1CC1 (single isomer, unassigned)",2300,900,–,–
C[C@H]1C2Cc3ccc(C(N)=O)cc3[C@@]1(C)CCN2CC1CC1,–,–,8.3,–
C[C@H]1C2Cc3ccc(N(C)C=O)cc3[C@@]1(C)CCN2CC1CC1,550,200,–,–
C[C@H]1C2Cc3ccc(NCc4ccccc4)cc3[C@@]1(C)CCN2CC1CC1,–,–,–,~1.3
CC[C@@]12CCN(CC3CC3)C(C(=O)c3ccc(C(N)=O)cc31)[C@@H]2C,–,–,9.8,–
C[C@H]1[C@H]2Cc3ccc(Nc4ccccc4)cc3[C@@]1(C)CCN2CC1CC1,–,–,–,~1.3
C[C@H]1C2Cc3ccc(NC=O)cc3[C@@]1(C)CCN2CC1CC1,1.9,0.85,–,–
C[C@H]1C2Cc3ccc(NC(=O)c4ccccc4)cc3[C@@]1(C)CCN2CC1CC1,570,820,–,–
